Columns and labels:
COLO 201 [1] = assay: Induction of apoptosis in human COLO201 cells assessed as viable cells at 0.2 uM by Annexin V-FITC and PI staining based flow cytometry analysis ( Rvb = 90%); assay type: functional; settings: read-out: Activity
[2] = target: T1, Tyrosine-protein kinase Lck (Homo sapiens, UniProt P06239); assay: Inhibition of recombinant human LCK (64 to 509 residues) incubated for 60 mins in presence of ATP by HTRF method
[3] = target: T1, Tyrosine-protein kinase Lck; assay: Inhibition of LCK (unknown origin)
COLO 201 [4] = assay: Induction of apoptosis in human COLO201 cells assessed as early apoptotic cells at 0.2 uM by Annexin V-FITC and PI staining based flow cytometry analysis (reference value: 3.2%); assay type: functional
COLO 201 [5] = assay: Induction of apoptosis in human COLO201 cells assessed as late apoptotic cells at 0.2 uM by Annexin V-FITC and PI staining based flow cytometry analysis (reference value: 6.2%); assay type: functional
COLO 201 [6] = assay: Induction of apoptosis in human COLO201 cells assessed as necrotic cells at 0.2 uM by Annexin V-FITC and PI staining based flow cytometry analysis (reference value: 0.7%); assay type: functional
COLO 201 [7] = assay: Induction of apoptosis in human COLO201 cells assessed as viable cells at 1 uM by Annexin V-FITC and PI staining based flow cytometry analysis (reference value: 90%); assay type: functional; settings: read-out: Activity
COLO 201 [8] = assay: Induction of apoptosis in human COLO201 cells assessed as early apoptotic cells at 1 uM by Annexin V-FITC and PI staining based flow cytometry analysis (reference value: 3.2%); assay type: functional
COLO 201 [9] = assay: Induction of apoptosis in human COLO201 cells assessed as late apoptotic cells at 1 uM by Annexin V-FITC and PI staining based flow cytometry analysis (reference value: 6.2%); assay type: functional
COLO 201 [10] = assay: Induction of apoptosis in human COLO201 cells assessed as necrotic cells at 1 uM by Annexin V-FITC and PI staining based flow cytometry analysis (reference value: 0.7%); assay type: functional
COLO 201 [11] = assay: Induction of apoptosis in human COLO201 cells assessed as viable cells at 2 uM by Annexin V-FITC and PI staining based flow cytometry analysis (reference value: 90%); assay type: functional; settings: read-out: Activity
COLO 201 [12] = assay: Induction of apoptosis in human COLO201 cells assessed as early apoptotic cells at 2 uM by Annexin V-FITC and PI staining based flow cytometry analysis (reference value: 3.2%); assay type: functional
COLO 201 [13] = assay: Induction of apoptosis in human COLO201 cells assessed as late apoptotic cells at 2 uM by Annexin V-FITC and PI staining based flow cytometry analysis (reference value: 6.2%); assay type: functional
COLO 201 [14] = assay: Induction of apoptosis in human COLO201 cells assessed as necrotic cells at 2 uM by Annexin V-FITC and PI staining based flow cytometry analysis (reference value: 0.7%); assay type: functional
COLO 201 [15] = assay: Induction of apoptosis in human COLO201 cells assessed as viable cells at 10 uM by Annexin V-FITC and PI staining based flow cytometry analysis (reference value: 90%); assay type: functional; settings: read-out: Activity
COLO 201 [16] = assay: Induction of apoptosis in human COLO201 cells assessed as early apoptotic cells at 10 uM by Annexin V-FITC and PI staining based flow cytometry analysis (reference value: 3.2%); assay type: functional
COLO 201 [17] = assay: Induction of apoptosis in human COLO201 cells assessed as late apoptotic cells at 10 uM by Annexin V-FITC and PI staining based flow cytometry analysis (reference value: 6.2%); assay type: functional
COLO 201 [18] = assay: Induction of apoptosis in human COLO201 cells assessed as necrotic cells at 10 uM by Annexin V-FITC and PI staining based flow cytometry analysis (reference value: 0.7%); assay type: functional

T1 sequence (P06239 whole entry, the tested form may be a part): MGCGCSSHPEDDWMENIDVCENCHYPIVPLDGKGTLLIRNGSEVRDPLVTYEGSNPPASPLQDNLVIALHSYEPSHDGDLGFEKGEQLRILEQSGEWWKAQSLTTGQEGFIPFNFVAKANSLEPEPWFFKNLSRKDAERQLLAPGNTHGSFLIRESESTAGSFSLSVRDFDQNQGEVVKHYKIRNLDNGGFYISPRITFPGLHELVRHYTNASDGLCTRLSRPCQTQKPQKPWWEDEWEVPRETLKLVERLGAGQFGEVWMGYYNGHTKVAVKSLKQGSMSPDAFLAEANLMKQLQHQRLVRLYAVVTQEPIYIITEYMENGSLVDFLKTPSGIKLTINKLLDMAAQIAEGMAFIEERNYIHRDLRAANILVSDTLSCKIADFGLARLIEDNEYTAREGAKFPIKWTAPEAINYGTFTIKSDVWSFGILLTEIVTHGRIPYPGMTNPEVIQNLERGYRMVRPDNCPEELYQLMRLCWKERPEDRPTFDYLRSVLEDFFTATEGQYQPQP

IC50 [2]: 147 nM
IC50 [3]: 147 nM
SMILES: COc1cc(-c2nn(C3CCC(N4CCN(C(C)=O)CC4)CC3)c3ncnc(N)c23)ccc1NC(=O)c1cc2ccccc2n1C (stereo not drawn)
viability at 0.2 µM (COLO 201 [1]): 92.6%
Activity (COLO 201 [4]): 2.5%
Activity (COLO 201 [5]): 4.3%
Activity (COLO 201 [6]): 0.6%
viability at 1 µM (COLO 201 [7]): 88.7%
Activity (COLO 201 [8]): 3.4%
Activity (COLO 201 [9]): 6.6%
Activity (COLO 201 [10]): 1.2%
viability at 2 µM (COLO 201 [11]): 82.6%
Activity (COLO 201 [12]): 7.1%
Activity (COLO 201 [13]): 8.5%
Activity (COLO 201 [14]): 1.8%
viability at 10 µM (COLO 201 [15]): 26.6%
Activity (COLO 201 [16]): 16.9%
Activity (COLO 201 [17]): 52.7%
Activity (COLO 201 [18]): 3.8%

— ChEMBL document CHEMBL5579802, “Identification of 3,4-dihydropyrimido[4,5-d]pyrimidin-2(1H)-one scaffolds as potent Lck inhibitors as anti-cancer agents” (Bioorg Med Chem Lett, 2024)
